IC50 data for 7 molecules are collected here from BindingDB's records for patent US20240216357 (Sichuan Huiyu Pharmaceutical, 2024).

As a reminder, the IC50 is the concentration that inhibits the measured activity by half. A low value points to greater potency in that assay.

SMILES strings stand for the structures.

For the assay, the target named is Lysine-specific histone demethylase 1A (Homo sapiens, UniProt O60341). Kind of assay: LSD1 Enzyme Activity Assay.
Regarding `Cc1ccc(-c2c(-c3ccc(C#N)cc3)nc3c(N4CCC[C@@H](N)C4)nccn23)cc1` [US20240216357, Example 5], the IC50 worked out at 0.0285 µM. This counts as double-digit nanomolar.

`COc1ccc(Nc2c(O)cc(N3CCC(N)CC3)nc2-c2ccc(C#N)c(F)c2)cc1F` [US20240216357, Example 64] showed a half-maximal inhibitory concentration (IC50) of 0.119 µM. This IC50 is about 4.2-fold higher than that of the molecule before.

`COc1cc(N2CCC(N)CC2)nc(-c2ccc(C#N)c(F)c2)c1-c1ccc(Cl)c(O)c1` [US20240216357, Example 98] yielded an IC50 of 0.0007 µM.

With `COc1ccc(-c2nc(N3CCC(N)CC3)cc(C#N)c2-c2ccc(C#N)c(F)c2)cc1O` [US20240216357, Example 274], the IC50 was found to be 0.0238 µM.

The molecule `COc1ccc(-c2c(-c3ccc(C#N)c(F)c3)nc(N3CCC(N)CC3)c3c2OCC(=O)N3)cc1O` [US20240216357, Example 280] displayed a half-inhibitory concentration (IC50) of 0.000272 µM.

`Cc1noc2cc(-c3cc(C#N)c(N4CCC(N)CC4)nc3-c3ccc(C#N)c(F)c3)c(F)cc12` [US20240216357, Example 284] yielded an IC50 of 0.633 µM.

In turn, `COc1ccc(-c2c(-c3ccc(C#N)c(F)c3)nc(N3CCC(N)CC3)c3c2cnn3C)cc1O` [US20240216357, Example 285] gave an IC50 of 0.00093 µM.
